“Also recorded” adds a separate entry of the source. Where no end group is shown, it is not given here.
Columns and labels:
[1] = system: Cx43 hemichannels in astrocytes; details: hippocampal slices; ref Rouach et al., 2008, Supplementary Data Figure S5; cited from earlier work
Description: The inhibitory effect of Gap19 in situ was then tested by performing the Etd^+ uptake assay in acute hippocampal brain slices from GFAP-eGFP transgenic mice. […] This increase ... || Gap19 is a peptide that corresponds to a sequence on the cytoplasmic loop (CL) of Cx43. Its sequence is part of the L2 domain that is involved in interactions of the CL with the CT-tail of Cx43. […] This differential effect is most probably the consequence of distinct channel configurations of hemichannels as compared ...

hemichannels = details: cited from earlier work; for Hemichannel-only effect: ref not given
Source text: Gap junction channels form junctional plaques that are composed of two docked hemichannels oligomerized from six Cx protein subunits. […] Stehberg and collaborators have used TAT-L2 for local injection in the amygdala in in vivo animal studies on fear memory (Stehberg et al., [2012]).

Gap19 = Gap19 (UniProt P17302); details: cited from earlier work
Sequence of Gap19 (P17302 whole entry, looked up): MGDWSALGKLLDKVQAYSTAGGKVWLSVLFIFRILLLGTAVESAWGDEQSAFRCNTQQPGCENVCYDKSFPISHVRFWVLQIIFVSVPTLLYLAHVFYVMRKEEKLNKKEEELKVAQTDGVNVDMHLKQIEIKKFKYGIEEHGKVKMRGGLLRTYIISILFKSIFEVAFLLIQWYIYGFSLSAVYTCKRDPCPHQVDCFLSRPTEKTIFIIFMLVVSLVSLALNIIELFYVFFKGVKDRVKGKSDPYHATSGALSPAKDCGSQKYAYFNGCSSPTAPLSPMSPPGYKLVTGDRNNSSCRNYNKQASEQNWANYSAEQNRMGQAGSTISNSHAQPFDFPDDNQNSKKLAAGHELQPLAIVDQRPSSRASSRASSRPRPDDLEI

Cx43 hemichannels [2] = target: T1, Cx43 hemichannels (Mus musculus, UniProt P23242); assay: Etd+ uptake in cultured astrocytes treated with TNF-α/IL-1β; format: cell-based, mouse (OF1); set-up: endogenous in cells; host or cells: primary cortical astrocytes from newborn OF1 mice; details: astrocyte cultures, "in the 250 μM range", read-out: Half-maximal effect concentration, hemichannels opened with TNF-α/IL-1β
T1 sequence (P23242 whole entry): as the sequence (P17302 whole entry, looked up) above, with D124E, I164V, K243R, S251T, A253P, A257S, Q263P, N341S, S344A, L347V counted along it
Description: (§1) Primary astrocyte cultures were prepared from the cortex of newborn (1–2 days) OF1 mice as described previously (Meme et al., [2006]). Briefly, cells were seeded into 100-mm diameter plastic dishes (Nunc, Roskilde, Denmark) at the density of 3 × 10^6 cells/dish in DMEM (Sigma-Aldrich, St-Louis MO, USA), supplemented with penicillin (5 U/ml), streptomycin (5 μg/ml) (Invitrogen, Carlsbad, CA, USA) and 10% FCS (Hyclone, Logan, UT, USA). The medium was changed twice a week. When cells reached confluence, around 10 days in vitro (DIV), they were harvested with trypsin-EDTA (Invitrogen). […]
Hemichannel activity in cultured astrocytes was induced either by treatment with two pro-inflammatory cytokines, TNF-α and IL-1β (Retamal et al., [2007]) or by exposing the cells to a Ca^2+-free solution (Stout et al., [2002]). […] Captured images of Etd^+ uptake were analyzed with the Image J program (NIH software).
(§2) The data are expressed as mean ± s.e.m., with “n” denoting the number of independent experiments. […] In experiments where the effects of different treatments were assessed on normalized data, non-parametric ANOVA Kruskal-Wallis tests were performed. […] Unless stated otherwise, significance as compared to control condition based on the raw data (before normalization) was assessed by two-tailed Wilcoxon signed-ranked tests. […]

Cx43 hemichannels [3] = target: T1, Cx43 hemichannels; assay: Etd+ uptake in astrocytes of acute hippocampal slices, Ca2+-free solution; format: cell-based, mouse (GFAP-eGFP); set-up: performing the Etd^+ uptake assay in acute hippocampal brain slices from GFAP-eGFP transgenic mice; from tissue; host or cells: acute hippocampal slices of GFAP-eGFP mice (GFP-positive astrocytes); details: zero extracellular Ca2+, "in the 250 μM range", read-out: Half-maximal effect concentration, zero extracellular Ca2+ in brain slices
Description: GFAP-eGFP mice (Nolte et al., [2001]) were decapitated and their brains were rapidly removed. Hippocampi were dissected and placed in ice-cold artificial cerebrospinal fluid (ACSF) equilibrated with 95% O2–5% CO2. Transverse hippocampal slices (300–400 μm thick) were cut on a vibroslicer (Leica VT 1000S, Wetzlar, Germany) and transferred to a holding chamber where they rested on a nylon mesh, submerged in oxygenated ACSF at room temperature for a stabilization period of 45 min before recodings. The ACSF solution contained in mM: NaCl 134; KCl 2.8; NaHCO3 29; NaH2PO4 1.1; glucose 12; MgSO4 1.5; CaCl2 2.5.
In slices derived from GFAP-eGFP mice, astrocytes were identified by GFP fluorescence and hemichannel activity was investigated. […] In order to be sure that we were quantifying Etd^+ uptake in astrocytes, in this study hemichannel activity was only considered in GFP-positive cells. […] Fluorescence was quantified in arbitrary units (AU), Image J program (NIH software). Dye uptake intensity was evaluated as the difference (F—F0) between the fluorescence (F) from astrocytes (20—30 cells per slice) and the background fluorescence (F0) measured in the same field where no labeled cells were detected. […]
The data are expressed as mean ± s.e.m., with “n” denoting the number of independent experiments. […]

Cx43 hemichannels [4] = target: T1, Cx43 hemichannels; assay: Glutamate-triggered ATP release in cultured cortical astrocytes; format: cell-based, mouse (OF1); set-up: endogenous in cells; host or cells: primary cortical astrocytes from newborn OF1 mice; details: primary cortical astrocyte cultures; glutamate 100 μM, 15 min; Gap19 30 min pre-incubation; n = 6 independent experiments; read-out: IC50 / half-maximal effect concentration for glutamate-triggered ATP release
Description: as §1, §2
While in vivo astrocytes express two major Cxs, Cx43 and Cx30, astrocytes in primary culture offer the advantage that only one of them is expressed, namely Cx43 (Giaume et al., [1991a]). Indeed, Cx30 is detected in astrocytes only either after 10–11 weeks of solo-culture (Kunzelmann et al., [1999]) or in 3 week-old astrocytes after 1 week of co-culture with neurons (Koulakoff et al., [2008]). […]

[5] = Brain TAT immunostaining 1 h after intra-carotid injection; format: in vivo, mouse (C57Bl6)
Description: Two different approaches were used for in vivo delivery of TAT-Gap19. For acute experiments, 4 months old C57Bl6 male mice were subjected to intra-carotid injection of 45 mg/kg TAT-Gap19 (GenScript, Pistcataway, NJ, US) dissolved in saline. After 1 h the mice were deeply anesthetized with sodium pentobarbital (120 mg/kg intraperitoneally) and were transcardially perfused with cold ice phosphate-buffered saline (PBS) followed by perfusion with 10% formalin (Sigma-Aldrich, Oakville, Canada). Brains were removed and stored in 10% formalin and the next day were cryoprotected in 30% sucrose in PBS solution. Cortical brain sections, 10 μm thick, were collected and mounted sequentially on glass microscope slides. Immunohistochemistry was performed on the sections as previously described (Ozog et al., [2002]; Nakase et al., [2004]; Kozoriz et al., [2010]). Ten μm thick glass mounted sections were rehydrated in PBS and then blocked in PBS pH 7.4 containing 0.3% Triton-X-100 (TX100, Fisher Scientific) and 2% bovine serum albumin (BSA; Invitrogen, Canada) for 1 h, and incubated overnight in PBS containing 1.0% BSA, 0.3% TX100 and anti-TAT primary antibody (1/100 dilution; Cat # CB0888, Cell Applications, Inc., USA). The following day, the slices were washed with PBS (3 × 10 min) and subsequently incubated for 1 h with secondary antibody (anti-mouse IgG tagged with Alexa 488; Molecular Probes, USA) in PBS containing 1% BSA, 0.3% TX100. Slices were then rinsed 3 times for 10 min with PBS and mounted with ProLong Gold antifade reagent with DAPI. Images were obtained using the same exposure times on a Ziess Axiophot Epifluorescent microscope, Zeiss Canada, Toronto).

Sequence of Connexin43 C-terminal tail (P17302 232-382): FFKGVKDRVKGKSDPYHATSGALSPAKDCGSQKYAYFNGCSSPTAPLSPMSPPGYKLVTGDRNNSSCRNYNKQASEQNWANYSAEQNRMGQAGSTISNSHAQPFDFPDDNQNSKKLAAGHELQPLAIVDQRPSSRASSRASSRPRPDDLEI

With `CC1(C)[C@@H](OC(=O)CCC(=O)O)CC[C@]2(C)[C@H]3C(=O)C=C4[C@@H]5C[C@@](C)(C(=O)O)CC[C@]5(C)CC[C@@]4(C)[C@]3(C)CC[C@@H]12` [carbenoxolone] as the compound, how does the “Block of hemichannel activity induced by calcium-free solution” value [1] read?
The value was “can be inhibited by carbenoxolone in hippocampal slices; also recorded: blocks hemichannel activity induced by a calcium free solution”.

And the “Discrimination between gap junctions and hemichannels” value (hemichannels; ref not printed at this statement (nearby: Takeuchi et al., 2011))?
Its value is “poorly discriminate between gap junctions and hemichannels”.

With `[Gd+3]` [gadolinium (Gd^3+), gadolinium] as the compound, how does the Hemichannel-only effect (hemichannels) read?
The Hemichannel-only effect was “supposed to affect only hemichannels”.

With `[La+3]` [lanthanum (La^3+), lanthanum] as the compound, how does the Hemichannel-only effect (hemichannels) read?
The Hemichannel-only effect was “supposed to affect only hemichannels”.

Which Kd (Gap19) does the source give for “Connexin43 C-terminal tail (from UniProt P17302)” here?
The Kd was 2.5 µM.

Which IC50 (Cx43 hemichannels [2]) does the source give for KQIEIKKFK [Gap19, KQIEIKKFK] here?
Its IC50 is about 250 µM.

And the IC50 (Cx43 hemichannels [3])?
Its IC50 is about 250 µM.

And the IC50 (Cx43 hemichannels [4])?
The IC50 was 142 µM.

What does the source list for “YGRKKRRQRRRKQIEIKKFK [TAT-Gap19, YGRKKRRQRRR-KQIEIKKFK]”?
TAT immunoreactivity in brain, 1 h after carotid injection ([5]; 45 mg/kg intra-carotid, 4 months old male mice, 1 h, anti-TAT antibody, compared with vehicle (PBS)): readily detected throughout the brain; also recorded: clear TAT immunoreactivity; TAT peptide in GFAP-positive astrocytes (double labeling anti-TAT/anti-GFAP) ([5]; 45 mg/kg intra-carotid, 1 h, cortex): some GFAP-positive astrocytes (white arrows) have taken up the TAT peptide; also recorded: reaches GFAP-positive astrocytes, however, several TAT-positive cells are apparently not GFAP-positive; Blood-brain barrier crossing ([5]; in vivo injection, immunostaining for TAT moiety, intra-carotid and i.v. experiments taken together): traverses the blood-brain barrier and is retained in the cells; also recorded: can successfully cross the blood-brain barrier
